The values below come from PMC9945182 (Chemical Research in Toxicology, 2023).

Where two headings read alike, the source gives them in different places.

Series [1] deals with T1, UGT1A4 (Homo sapiens, UniProt P22310).
T1 sequence (P22310 29-534): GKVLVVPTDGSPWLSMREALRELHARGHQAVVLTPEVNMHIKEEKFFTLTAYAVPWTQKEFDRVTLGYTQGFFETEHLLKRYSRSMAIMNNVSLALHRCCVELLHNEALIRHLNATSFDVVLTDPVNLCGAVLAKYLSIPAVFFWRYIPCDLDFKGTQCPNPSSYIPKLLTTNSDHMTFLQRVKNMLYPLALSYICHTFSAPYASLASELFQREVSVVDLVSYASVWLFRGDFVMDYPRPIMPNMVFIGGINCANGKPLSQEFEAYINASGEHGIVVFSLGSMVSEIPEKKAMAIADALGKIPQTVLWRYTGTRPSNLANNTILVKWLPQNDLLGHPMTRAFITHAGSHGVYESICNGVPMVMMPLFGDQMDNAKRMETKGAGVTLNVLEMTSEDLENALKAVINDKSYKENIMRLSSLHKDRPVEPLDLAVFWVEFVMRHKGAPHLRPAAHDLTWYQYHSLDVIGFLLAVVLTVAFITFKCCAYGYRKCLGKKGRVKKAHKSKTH
The format is biochemical. Particulars: UGT1A4 microsomes; nicotine or cotinine as substrate; screening.

For series [2], the system named is human liver microsomes (HLM). The experiment in a line: Inhibition of cotinine to 3HC formation in pooled human liver microsomes. The format is biochemical. The following applies: cotinine 900 μM.
Series [3] has as its target T2, CYP2A6 (Homo sapiens, UniProt P11509).
T2 sequence (P11509 1-494): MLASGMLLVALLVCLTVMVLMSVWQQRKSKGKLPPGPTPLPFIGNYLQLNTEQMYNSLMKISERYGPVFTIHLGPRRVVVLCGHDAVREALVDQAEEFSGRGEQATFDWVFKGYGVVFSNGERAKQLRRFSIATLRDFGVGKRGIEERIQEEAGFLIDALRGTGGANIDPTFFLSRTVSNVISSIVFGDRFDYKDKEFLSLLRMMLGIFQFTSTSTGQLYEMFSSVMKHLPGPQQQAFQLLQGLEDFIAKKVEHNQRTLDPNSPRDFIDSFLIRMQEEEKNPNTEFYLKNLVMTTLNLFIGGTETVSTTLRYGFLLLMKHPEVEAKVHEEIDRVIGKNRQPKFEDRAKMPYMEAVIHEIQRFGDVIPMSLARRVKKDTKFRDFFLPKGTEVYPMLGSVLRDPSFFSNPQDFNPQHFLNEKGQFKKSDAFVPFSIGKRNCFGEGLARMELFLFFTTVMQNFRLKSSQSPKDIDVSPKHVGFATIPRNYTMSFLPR
The series is classed as biochemical. Particulars: for inhibition of nornicotine formation: nicotine substrate, CYP2A6 microsomes; for IC50: nicotine 50 μM, rec CYP2A6 microsomes.

Series [4] addresses T2, CYP2A6. The series is classed as biochemical. Particulars: for decrease of 3HC formation: cotinine substrate, CYP2A6 microsomes; for IC50: cotinine 100 μM, rec CYP2A6 microsomes.
The target of series [5] is T2, CYP2A6. The format is biochemical. Particulars: for inhibition of cotinine formation: nicotine substrate, CYP2A6 microsomes, vs 100% activity control; for IC50: nicotine 100 μM, rec CYP2A6 microsomes.
For series [6] the following is noted: cited from earlier work; for physiological levels in the plasma corrected for plasma protein binding: after a single clinical dose of CBD.
For series [7], the target named is T3, CYP2B6 (Homo sapiens, UniProt P20813).
T3 sequence (P20813 1-491): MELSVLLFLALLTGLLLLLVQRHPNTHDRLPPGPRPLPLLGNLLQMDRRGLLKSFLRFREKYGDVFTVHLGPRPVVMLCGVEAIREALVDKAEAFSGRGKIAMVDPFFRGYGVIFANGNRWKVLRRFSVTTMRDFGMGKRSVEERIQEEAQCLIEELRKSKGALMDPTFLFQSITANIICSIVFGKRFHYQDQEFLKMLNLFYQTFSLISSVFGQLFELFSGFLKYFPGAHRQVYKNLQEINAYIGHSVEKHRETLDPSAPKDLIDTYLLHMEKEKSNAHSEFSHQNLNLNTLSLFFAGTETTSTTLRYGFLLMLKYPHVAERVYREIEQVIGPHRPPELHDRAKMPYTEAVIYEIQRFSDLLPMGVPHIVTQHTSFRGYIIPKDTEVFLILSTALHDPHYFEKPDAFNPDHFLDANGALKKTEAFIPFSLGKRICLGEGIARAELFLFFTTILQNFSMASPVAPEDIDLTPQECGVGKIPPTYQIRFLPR
The format is biochemical. Particulars: for inhibition of nornicotine formation: nicotine substrate, CYP2B6 microsomes.

For series [8], the target named is T4, FMO3 (Homo sapiens, UniProt P31513).
T4 sequence (P31513 1-532): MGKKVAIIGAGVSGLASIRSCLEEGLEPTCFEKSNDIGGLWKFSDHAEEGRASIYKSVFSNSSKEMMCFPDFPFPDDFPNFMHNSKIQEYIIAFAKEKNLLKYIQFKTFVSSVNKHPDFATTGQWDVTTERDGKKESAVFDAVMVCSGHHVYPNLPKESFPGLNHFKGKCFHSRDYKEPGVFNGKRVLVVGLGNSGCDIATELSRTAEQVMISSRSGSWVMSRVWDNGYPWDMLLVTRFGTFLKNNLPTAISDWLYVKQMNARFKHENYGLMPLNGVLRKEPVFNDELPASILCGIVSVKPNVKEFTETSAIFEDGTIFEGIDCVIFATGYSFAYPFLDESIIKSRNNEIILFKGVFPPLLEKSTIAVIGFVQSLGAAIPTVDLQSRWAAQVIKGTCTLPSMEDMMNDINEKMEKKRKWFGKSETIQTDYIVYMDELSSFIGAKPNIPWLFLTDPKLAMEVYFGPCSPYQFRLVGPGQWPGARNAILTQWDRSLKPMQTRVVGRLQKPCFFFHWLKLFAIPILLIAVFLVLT
The series is classed as biochemical. The following applies: 1 or 10 μM cannabinoid; nicotine 1 mM; FMO3 microsomes.

Where [9] appears, read: single dose regimen of Epidiolex (6000 mg).
[10] abbreviates: human, microsomes from CYP2B6-overexpressing HEK293 cells, pH 7.4, probe nicotine (nornicotine formation).

As to `C=C(C)[C@@H]1CCC(CO)=C[C@H]1c1c(O)cc(CCCCC)cc1O` [7-OH-CBD, 7-hydroxy-cannabidiol], the “inhibition of nicotine-Gluc or cotinine-Gluc formation” value in series [1] is “no significant inhibition”. Besides, the IC50 amounted to 9100 ± 3400 nM in series [2]; 2100 ± 970 nM in series [3] (nornicotine formation); 160 ± 80 nM in series [3] (read-out: IC50,u (binding-corrected IC50), nornicotine formation, IC50 × fu,inc); 10000 ± 3000 nM in series [4] (3HC formation); 780 ± 230 nM in series [4] (read-out: IC50,u (binding-corrected IC50), 3HC formation, IC50 × fu,inc); 5800 ± 2300 nM in series [5] (cotinine formation, mean ± SD of three experiments). In addition, the IC50 in series [5] (read-out: IC50,u (binding-corrected IC50), cotinine formation, IC50 × fu,inc) came out at 450 ± 180 nM; in series [7] (nornicotine formation, nicotine 100 μM, rec CYP2B6 microsomes), 1400 ± 400 nM; in series [7] (read-out: IC50,u (binding-corrected IC50), nornicotine formation, nicotine 100 μM, rec CYP2B6 microsomes, IC50 × fu,inc) it was 110 ± 30 nM. Moreover, the “inhibition of nornicotine formation” value in series [3] (1 μM inhibitor) was found to be 55%; in series [3] (10 μM inhibitor), 70%; in series [7] (1 μM inhibitor) it was 64%; in series [7] (10 μM inhibitor), 72%. Also, the “decrease of 3HC formation” value in series [4] (1 μM inhibitor) is given as 45%; in series [4] (10 μM inhibitor), 65%. Also, the “inhibition of cotinine formation” value is 50% in series [5] (1 μM inhibitor) and 75% in series [5] (10 μM inhibitor). The “physiological levels in the plasma corrected for plasma protein binding” value in series [6] is given as 0.04–0.09 μM. For the same compound, in series [6] (setting [9]), the “calculated unbound plasma Cmax” value is 93.6 nM. Besides, in series [8], the “inhibitory effect on NOX formation” value is on record as “No inhibitory effect”.
In the case of `C=C(C)[C@@H]1CCC(C)=C[C@H]1c1c(O)cc(CCCCC)cc1O` [CBD, cannabidiol], the “inhibition of nicotine-Gluc or cotinine-Gluc formation” value in series [1] is recorded as “no significant inhibition”. Besides, the IC50 in series [2] was determined as 8800 ± 1300 nM; in series [3] (IC50, nornicotine formation), 3700 ± 2200 nM; in series [3] (IC50,u (binding-corrected IC50), nornicotine formation, IC50 × fu,inc) it was 230 ± 140 nM; in series [4] (IC50, 3HC formation), 3400 ± 2300 nM; in series [4] (IC50,u (binding-corrected IC50), 3HC formation, IC50 × fu,inc), 210 ± 140 nM; in series [5] (IC50, cotinine formation, mean ± SD of three experiments), 4400 ± 1000 nM. Also, the IC50 was 270 ± 60 nM in series [5] (IC50,u (binding-corrected IC50), cotinine formation, IC50 × fu,inc); 470 ± 77 nM in series [7] (IC50, nornicotine formation, nicotine 100 μM, rec CYP2B6 microsomes); 29 ± 5 nM in series [7] (IC50,u (binding-corrected IC50), nornicotine formation, nicotine 100 μM, rec CYP2B6 microsomes, IC50 × fu,inc). Moreover, the “decrease of 3HC formation” value in series [4] (1 μM inhibitor) amounted to 55%; in series [4] (10 μM inhibitor) it was 60%. The “physiological levels in the plasma corrected for plasma protein binding” value in series [6] was 0.06–0.15 μM. In series [6] (read-out: plasma Cmax (maximum concentration), total, single dose regimen of Epidiolex (6000 mg)), the Cmax is 2500 nM. For the same compound, in series [6] (setting [9]), the “calculated unbound plasma Cmax” value was 75 nM. The compound further returned a 50% inhibitory concentration (IC50) at 30 min in series [7] (human, microsomes from CYP2B6-overexpressing HEK293 cells, pH 7.4, probe nicotine 100 μM (nornicotine formation), IC50,u (binding-corrected IC50), nornicotine formation, nicotine 100 μM, rec CYP2B6 microsomes, IC50 × fu,inc) of 30 ± 5 nM. In series [7] (setting [10]), this compound displayed an inhibition at 30 min, 1 µM of 75%. The inhibition at 30 min, 10 µM in series [7] (setting [10]) was determined as 85%. Further, in series [8], the “inhibitory effect on NOX formation” value was “No inhibitory effect”.
